US5171676A, “Method of introducing hydroxyl groups into artemisinin and its derivatives” (priority 1991, dated 1992)
In brackets after ≈: the same amount, converted by molar mass. Where two headings read alike, the source gives them in different places.

Columns and labels:
[1] = system: Plasmodium falciparum, malarial strain W2; test: Antimalarial activity in vitro, growth inhibition, strain W2; assay type: cell-based; conditions: for IC50: Plasmodium falciparum
Experimental: (§1) The antimalarial activity of various hydroxylated artemisinin derivatives obtained via the present method was determined by Drs. S. Anderson and W.K. Milhous at the Division of Experimental Therapeutics, Walter Reed Army Institute of Research, Washington, D.C.
(§2) The malarial strains employed in this survey include D6, W2, and GA3. In Table 2, below, the -pharmacological data are reported as IC-50, indicating the concentration, in ng per ml, of compound required to inhibit growth of the parasite at the 50% level.

[2] = system: Plasmodium falciparum, malarial strain D6; test: Antimalarial activity in vitro, growth inhibition, strain D6; assay type: cell-based; conditions: for IC50: Plasmodium falciparum
Experimental: as §1, §2

Falciparum malaria = conditions: cited from earlier work; for reversal of chloroquine-resistance: with chloroquine, reports by Van Dyke et al.
[3] = system: Plasmodium falciparum, malarial strain GA3; test: Antimalarial activity in vitro, growth inhibition, strain GA3; assay type: cell-based; conditions: 50% inhibition of parasite growth; for IC50: Plasmodium falciparum
Experimental: as §1, §2

Plasmodium falciparum = test: Antimalarial activity against the strains tested (summary of in vitro tests); assay type: cell-based; conditions: in words
Experimental: as §1, §2

P. falciparum = conditions: cited from earlier work
[4] = strain W2, in vitro, 50% inhibition of parasite growth, read-out: IC-50
[5] = strain D6, in vitro, 50% inhibition of parasite growth, read-out: IC-50

**Q.** What does the source list for `CCN(CC)CCCC(C)Nc1ccnc2cc(Cl)ccc12` (stereo not shown) [Chloroquine, chloroquine]?
**A.** IC50 ([1]; W2): 41.4 ng/mL (≈ 129 nM); IC50 ([2]; D6): 6.63 ng/mL (≈ 20.7 nM)

**Q.** For `COc1ccc(CCN(C)CCCC(C#N)(c2ccc(OC)c(OC)c2)C(C)C)cc1OC` (stereo not shown) [verapamil], which “synergy with antimalarial drugs” value (Falciparum malaria) is on record?
**A.** act in a synergistic manner to greatly reduce the quantities of drugs required for activity

**Q.** And the reversal of chloroquine-resistance (Falciparum malaria)?
**A.** reverse the chloroquine-resistance in Falciparum malaria

**Q.** Which IC50 [3] does the source give for `CCOC1OC2OC3(C)CCC4C(C)CCC(C1C)C24OO3` (stereo not shown) [Arteether, ethyl ether of dihydroartemisinin] here?
**A.** 0.498 ng/mL (≈ 1.59 nM)

**Q.** And the IC50 [1, 4]?
**A.** 0.28 ng/mL (≈ 0.896 nM)

**Q.** What about the IC50 [2, 5] of the same compound?
**A.** 0.73 ng/mL (≈ 2.34 nM)

**Q.** With `COc1ccc2cc1Oc1ccc(cc1)C[C@H]1c3cc(c(OC)cc3CCN1C)Oc1c(OC)c(OC)cc3c1[C@H](C2)N(C)CC3` [tetrandrine] as the compound, how does the “synergy with antimalarial drugs” value (Falciparum malaria; Van Dyke) read?
**A.** act in a synergistic manner to greatly reduce the quantities of drugs required for activity

**Q.** What about the reversal of chloroquine-resistance (Falciparum malaria) of the same compound?
**A.** reverse the chloroquine-resistance in Falciparum malaria

**Q.** What does the source list for `CCOC1OC2OC3(C)CCC4C(CO)CCC(C1C)C24OO3` (stereo not shown) [14-Hydroxyarteether]?
**A.** antimalarial activity (Plasmodium falciparum): exhibit antimalarial activity against the strains tested; IC50 [3]: 8.18 ng/mL (≈ 24.9 nM); IC50 [1, 4]: 2.77 ng/mL (≈ 8.43 nM); IC50 [2, 5]: 12.6 ng/mL (≈ 38.4 nM)

**Q.** Which antimalarial activity (Plasmodium falciparum) does the source give for `CCOC1OC2OC3(C)CCC4C(C)C(O)CC(C1C)C24OO3` (stereo not drawn) [7β-Hydroxyarteether] here?
**A.** exhibit antimalarial activity against the strains tested

**Q.** What about the IC-50 [3] of the same compound?
**A.** 8.83 ng/mL

**Q.** What about the IC-50 ([1]; strain W2, in vitro, 50% inhibition of parasite growth) of the same compound?
**A.** 2.78 ng/mL

**Q.** What about the IC-50 ([2]; strain D6, in vitro, 50% inhibition of parasite growth) of the same compound?
**A.** 12.6 ng/mL

**Q.** Which resistance development (P. falciparum; P. falciparum) does the source give for `C[C@@H]1CC[C@H]2[C@@H](C)C(=O)O[C@@H]3O[C@@]4(C)CC[C@@H]1[C@]32OO4` [Artemisinin, artemisinin] here?
**A.** P. falciparum has not developed resistance

**Q.** What about the speed of action (P. falciparum) of the same compound?
**A.** act rapidly

**Q.** What about the toxicity (P. falciparum) of the same compound?
**A.** relatively non-toxic

**Q.** What about the IC50 [3] of the same compound?
**A.** 1.58 ng/mL (≈ 5.6 nM)

**Q.** And the IC50 [1, 4]?
**A.** 0.79 ng/mL (≈ 2.8 nM)

**Q.** And the IC50 [2, 5]?
**A.** 0.97 ng/mL (≈ 3.44 nM)

**Q.** With `C[C@H]1C(OC(=O)Nc2ccccc2)O[C@@H]2O[C@@]3(C)CC[C@H]4[C@H](CO)CC[C@@H]1[C@@]24OO3` (stereo partly shown) [14-Hydroxy-N-phenylcarbamoyl dihydroartemisinin] as the compound, how does the antimalarial activity (Plasmodium falciparum) read?
**A.** exhibit antimalarial activity against the strains tested

**Q.** What about the IC50 [2, 5] of the same compound?
**A.** 2 ng/mL (≈ 4.77 nM)
